The subject of one series is zebrafish embryos. The conditions noted are these: for Mortality rate (MR) / Pericardial effusion (percentage of treated larvae): 1 µM; for Mortality rate (MR): average percentage of larvae that died before imaging; for Effect on heart functionality: clinically relevant doses (Cmax); for Pericardial Effusion Rate(%): zebrafish, in vivo; for Overall effect on embryonic development / cardiovascular system: screening concentration; for Overall effect on embryonic development: clinically relevant concentrations (Cmax).

The next series deals with zebrafish larvae. Kind of series: Behavioral assay (bright/dark locomotion test, DanioVision). The conditions noted are these: for Effect on swimming behavior: screening concentration 1 µM (Ivermectin 0.5 µM).
In series [1] the test system is inflammatory and immune response gene expression. It is filed as in vivo, zebrafish (Danio rerio). The conditions noted are these: for Inflammatory response related gene expression upon SARS-CoV-2 spike protein treatment: with spike protein; for Inflammatory gene response in the absence of spike protein: without spike protein, vs DMSO.
The conditions of series [2]: read-out: Cmax (highest concentration detected in blood plasma), humans; cited from earlier work.
Setting [3] is: with SARS-CoV-2 spike protein, drug 48 h.

Entries after “also recorded” stand apart in the source; their conditions may differ. Where two headings read alike, the source gives them in different places. *1 amine or outer side, *2 acyl side, *3 side chain or, on linkers, in order; H or OH if unused. Where a SMILES comes first, the peptide text is derived from it. Bridges are numbered along the chain shown (N, C = ends). [ ]: non-standard residue; d: D form. The star is where a group is joined. pTerphenylCO(4''-OnC5H11) = CCCCCOc1ccc(-c2ccc(-c3ccc(C(=O)*)cc3)cc2)cc1; Orn(4R-OH,5R-OH) = O=C([C@H](C[C@@H](O)[C@@H](O)N[*:3])N[*:1])[*:2]; hTyr(3S-OH,4S-OH) = N[C@H](C(=O)O)[C@H](O)[C@@H](O)c1ccc(O)cc1; Pro(3S-OH,4S-Me) = C[C@H]1CN[C@H](C(=O)O)[C@H]1O; Hyp = O=C(O)[C@@H]1C[C@@H](O)CN1

As for 17α-Hydroxyprogesterone, the “Effect on body length” value in the series on zebrafish embryos (1 µM screening) is listed as “larval overgrowth”.
In the case of `S=C(NCc1ccc2c(c1)OCO2)N1CCN(c2ncnc3c2oc2ccccc23)CC1` [Amuvatinib], the “Effect on swimming behavior” value in the series with zebrafish larvae is given as “effect”.
Turning to `CCCCCOc1ccc(-c2ccc(-c3ccc(C(=O)N[C@H]4C[C@@H](O)[C@@H](O)NC(=O)[C@@H]5[C@@H](O)[C@@H](C)CN5C(=O)[C@H]([C@@H](C)O)NC(=O)[C@H]([C@H](O)[C@@H](O)c5ccc(O)cc5)NC(=O)[C@@H]5C[C@@H](O)CN5C(=O)[C@H]([C@@H](C)O)NC4=O)cc3)cc2)cc1` [Anidulafungin] ({pTerphenylCO(4''-OnC5H11)}-[Orn(4R-OH,5R-OH)]T[Hyp][hTyr(3S-OH,4S-OH)]T[Pro(3S-OH,4S-Me)]; lactam 1-C), the “Effect on swimming behavior” value in the series with zebrafish larvae is “effect”.
On to `Cc1cccc(/C=N/Nc2cc(N3CCOCC3)nc(OCCc3ccccn3)n2)c1` [Apilimod], for which the “Mortality rate (MR)” value in the series on zebrafish embryos is “over 10%”. For the same compound, the “Effect on swimming behavior” value in the series with zebrafish larvae is “effect”.
For `COc1ccc(CCN2CCC(Nc3nc4ccccc4n3Cc3ccc(F)cc3)CC2)cc1` [Astemizole], in the series on zebrafish embryos, the “Pericardial effusion (percentage of treated larvae)” value was found to be 94.4% and the “Mortality rate (MR)” value is “over 10%”. In addition, in the series on zebrafish embryos (1 µM screening), the “Effect on ISV area” value is “negative effects” and the “Effect on body length” value is on record as “highest reduction”.
With `CCS(=O)(=O)N1CC(CC#N)(n2cc(-c3ncnc4[nH]ccc34)cn2)C1` [Baricitinib], the ccl20a.3 levels result in series [1] (setting [3]) is listed as “significantly reduced”. In series [1], the “Inflammatory response related gene expression upon SARS-CoV-2 spike protein treatment” value was “counteracted” and the “Inflammatory gene response in the absence of spike protein” value (“Inflammatory gene response” for short) was “alter the inflammatory gene response”. In the series on zebrafish embryos (at Cmax, mean of morphological and behavioral assay), the “Mean Mortality(%)” value stood at 18.3%. In the series with zebrafish embryos, the “Effect on heart functionality” value was “reduced heart functionality” and the “Pericardial Effusion Rate(%)” value came to 9.30%. In series [2], the Cmax was 144 nM. Also, in the series with zebrafish larvae (at Cmax), the “Effect on motility / swimming behavior / embryo activity” value is given as “effects on embryo activity; also recorded: alterations; also recorded: affected”.
In the case of `Nc1nc(Nc2ccc3c(c2)CC[C@@H](N2CCCC2)CC3)nn1-c1cc2c(nn1)-c1ccccc1CCC2` [Bemcentinib], in the series on zebrafish larvae, the “Effect on swimming behavior” value was “effect”.
Take `COc1cc2nccc(Oc3ccc(NC(=O)C4(C(=O)Nc5ccc(F)cc5)CC4)cc3)c2cc1OC` [Cabozantinib]: in the series on zebrafish embryos (1 µM screening), the “Effect on ISV formation” value is recorded as “strong inhibition”. For the same compound, in the series with zebrafish larvae, the “Effect on swimming behavior” value is listed as “effect”.
For `CN(C)C(=O)COC(=O)Cc1ccc(OC(=O)c2ccc(NC(=N)N)cc2)cc1` [Camostat], the “Effect on swimming behavior” value in the series with zebrafish larvae is listed as “effect”.
Consider `CC(C)C[C@H](NC(=O)[C@@H](NC(=O)c1cccc(-c2ccccc2)n1)[C@@H](C)O)B(O)O` [Delanzomib], for which, in the series on zebrafish larvae, the “Effect on swimming behavior” value is “effect”.
Regarding `NC(=O)c1nc(F)c[nH]c1=O` [Favipiravir], the “Effect on body length” value in the series on zebrafish embryos (1 µM screening) is listed as “mild effect”.
`COc1ccc2cc1Oc1ccc(cc1)C[C@H]1c3cc(c(OC)cc3CCN1C)Oc1c(O)c(OC)cc3c1[C@H](C2)N(C)CC3` [Hanfangchin B]: the “Effect on swimming behavior” value in the series with zebrafish larvae is listed as “effect”.
Regarding `CCN(CCO)CCCC(C)Nc1ccnc2cc(Cl)ccc12` (stereo not drawn) [Hydroxychloroquine], in the series on zebrafish embryos (1 µM screening), the “Effect on ISV area” value is recorded as “significant reductions” and the “Effect on ejection fraction” value is “significant reductions”. Moreover, the “Overall effect on embryonic development / cardiovascular system” value in the series with zebrafish embryos was “mild defects on the cardiovascular system”.
Take `Cc1cccc(C)c1OCC(=O)N[C@@H](Cc1ccccc1)[C@@H](O)C[C@H](Cc1ccccc1)NC(=O)[C@H](C(C)C)N1CCCNC1=O` [Lopinavir]: the “Effect on ejection fraction” value with zebrafish embryos (1 µM screening) is given as “reduced”.
On to `COC(=O)C1=C(C)NC(C)=C(C(=O)OCCN2CCN(C(c3ccccc3)c3ccccc3)CC2)C1c1cccc([N+](=O)[O-])c1` (stereo not drawn) [Manidipine], for which the “Mortality rate (MR)” value in the series on zebrafish embryos was “over 10%”.
Take `CO[C@@H]1[C@H](N(C)C(=O)c2ccccc2)C[C@H]2O[C@]1(C)n1c3ccccc3c3c4c(c5c6ccccc6n2c5c31)C(=O)NC4` [Midostaurin]: the “Mortality rate (MR)” value in the series on zebrafish embryos is recorded as “over 10%”.
With `CC(C)C(=O)OC[C@H]1O[C@@H](n2ccc(NO)nc2=O)[C@H](O)[C@@H]1O` [Molnupiravir], in series [1] (setting [3]), the ccl20a.3 levels result was “significantly reduced”, the il4 expression entry was “successfully downregulated” and the ptg expression result is given as “upregulated to control levels”. In addition, in series [1], the “Inflammatory response related gene expression upon SARS-CoV-2 spike protein treatment” value is recorded as “counteracted” and the “Inflammatory gene response” value was “alter the inflammatory gene response”. For the same compound, in the series on zebrafish embryos, the “Overall effect on embryonic development” value is on record as “severe adverse effects” and the “Pericardial Effusion Rate(%)” value is listed as 0.00%. Further, in series [2], the Cmax is 40 nM.
With `O=C(Nc1ccc([N+](=O)[O-])cc1Cl)c1cc(Cl)ccc1O` [Niclosamide], in the series with zebrafish embryos, the “Mortality rate (MR)” value is “over 10%”.
Take `O=C(Nc1cc(Cl)cc(Cl)c1O)c1c(O)c(Cl)cc(Cl)c1Cl` [Oxyclozanide]: the “Effect on swimming behavior” value in the series on zebrafish larvae is listed as “effect”.
Consider `O=c1[nH]c2ccccc2n1C1CCN(CCCC(c2ccc(F)cc2)c2ccc(F)cc2)CC1` [Pimozide], for which, in the series on zebrafish embryos, the “Pericardial effusion (percentage of treated larvae)” value is 100% and the “Mortality rate (MR)” value is given as “over 10%”. In the series with zebrafish embryos (1 µM screening), the “Effect on ISV area” value is on record as “negative effects” and the “Effect on body length” value was “highest reduction”.
For the compound `Cc1ccc(C(=O)Nc2ccc(CN3CCN(C)CC3)c(C(F)(F)F)c2)cc1C#Cc1cnc2cccnn12` [Ponatinib], the “Pericardial effusion (percentage of treated larvae)” value with zebrafish embryos was 100%. The “Effect on body length” value with zebrafish embryos (1 µM screening) is listed as “highest reduction”. In addition, in the series with zebrafish larvae, the “Effect on swimming behavior” value is listed as “effect”.
Regarding `C[C@@H](c1nc(-c2ccc(C#N)cc2)cs1)[C@](O)(Cn1cncn1)c1ccc(F)cc1F` [Ravuconazole], the “Effect on swimming behavior” value in the series on zebrafish larvae is reported as “effect”.
On to `CNC(=O)c1cc(Oc2ccc(NC(=O)Nc3ccc(Cl)c(C(F)(F)F)c3)c(F)c2)ccn1` [Regorafenib], for which the “Effect on ISV formation” value with zebrafish embryos (1 µM screening) is “strong inhibition”.
In the case of `CCC(CC)COC(=O)[C@H](C)N[P@](=O)(OC[C@H]1O[C@@](C#N)(c2ccc3c(N)ncnn23)[C@H](O)[C@@H]1O)Oc1ccccc1` [Remdesivir], the ptg expression result in series [1] (setting [3]) is on record as “upregulated to control levels”. In series [1], the “Inflammatory response related gene expression upon SARS-CoV-2 spike protein treatment” value was “counteracted” and the “Inflammatory gene response” value was “broadest effect; also recorded: alter the inflammatory gene response”. Also, in the series with zebrafish embryos (at Cmax), the “Effect on ejection fraction” value is on record as “decrease” and the “Effect on heart rate” value is reported as “decrease”. Besides, in the series on zebrafish embryos, the “Overall effect on embryonic development” value is recorded as “severe adverse effects”, the “Effect on heart functionality” value is “reduced” and the “Pericardial Effusion Rate(%)” value was 7.69%. Moreover, the Cmax in series [2] was 4500 nM.
As for `NC(=O)c1ncn([C@@H]2O[C@H](CO)[C@@H](O)[C@H]2O)n1` [Ribavirin], the “Effect on ISV area” value with zebrafish embryos (1 µM screening) is given as “mildly reduced”.
`CC(C)c1nc(CN(C)C(=O)N[C@H](C(=O)N[C@@H](Cc2ccccc2)C[C@H](O)[C@H](Cc2ccccc2)NC(=O)OCc2cncs2)C(C)C)cs1` [Ritonavir]: in series [1], the “Inflammatory response related gene expression upon SARS-CoV-2 spike protein treatment” value is on record as “counteracted” and the “Inflammatory gene response” value was “alter the inflammatory gene response”. Besides, in the series on zebrafish embryos (at Cmax), the “Effect on ejection fraction” value is on record as “altered” and the “Effect on heart rate” value is given as “altered”. Further, in the series on zebrafish embryos, the “Overall effect on embryonic development” value is given as “overall little embryonic alterations” and the “Pericardial Effusion Rate(%)” value came out at 8.70%. For the same compound, the Cmax in series [2] is 15200 nM.
Take `CNC(=O)c1cc(Oc2ccc(NC(=O)Nc3ccc(Cl)c(C(F)(F)F)c3)cc2)ccn1` [Sorafenib]: the “Effect on ISV formation” value with zebrafish embryos (1 µM screening) is recorded as “strong inhibition”.
In the case of `C=CC[C@@H]1/C=C(\C)C[C@H](C)C[C@H](OC)[C@H]2O[C@@](O)(C(=O)C(=O)N3CCCC[C@H]3C(=O)O[C@H](/C(C)=C/[C@@H]3CC[C@@H](O)[C@H](OC)C3)[C@H](C)[C@@H](O)CC1=O)[C@H](C)C[C@@H]2OC` [Tacrolimus], in the series on zebrafish embryos (1 µM screening), the “Effect on ejection fraction” value is given as “increase”.
For the compound `CCOC(=O)c1c(CSc2ccccc2)n(C)c2cc(Br)c(O)c(CN(C)C)c12` [Umifenovir], in the series on zebrafish embryos (1 µM screening), the “Effect on ISV area” value was “mildly reduced”.
With Ivermectin, the Mortality entry in the series with zebrafish embryos (0.5 µM) is “mortality disappeared”. Also, in the series on zebrafish embryos (1 µM screening), the “Effect on body length” value is recorded as “highest reduction”. Also, in the series on zebrafish embryos, the “Mortality rate (MR)” value is recorded as “over 10%” and the “Overall effect on embryonic development / cardiovascular system” value is reported as “severely affected embryonic development”. In addition, the “Effects on larval behavior” value in the series on zebrafish larvae (0.5 µM) was “still observed effects”. Also, in the series on zebrafish larvae, the “Effect on swimming behavior” value is given as “most severe effects”.

These data come from PMC10562458, “Identification of side effects of COVID-19 drug candidates on embryogenesis using an integrated zebrafish screening platform” (Scientific Reports, 2023).
